Results as given in US20090018111A1, “Novel Antimicrobial Medicament” (priority 2004, published 2009).
Where two headings read alike, the source gives them in different places.

Legend:
M. luteus ATCC9341 = test: Sensitivity test (agar dilution); assay type: cell-based, Micrococcus luteus; details: Micrococcus luteus, M. luteus ATCC9341
Summary of the method: (§1)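 Agar dilution, MHA; twofold serial drug dilutions (single or combination). Overnight 37° C cultures in gelatin-containing buffered saline, ~10^6 CFU/ml, ~5 μl spots. Endpoint MIC; FIC index calculated.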

E. faecalis ATCC19433 = test: Sensitivity test (agar dilution); assay type: cell-based, Enterococcus faecalis; details: Enterococcus faecalis, E. faecalis ATCC19433
Summary of the method: as §1

B. subtilis ATCC6633 = test: Sensitivity test (agar dilution); assay type: cell-based, Bacillus subtilis; details: Bacillus subtilis, B. subtilis ATCC6633
Summary of the method: as §1

E. coli ML1410 RP4 = test: microbe, parasite or virus in culture; assay type: cell-based, Escherichia coli; details: Escherichia coli, E. coli ML1410 RP4
Summary of the method: as §1

K. pneumoniae ATCC10031 = test: Sensitivity test (agar dilution); assay type: cell-based, Klebsiella pneumoniae; details: Klebsiella pneumoniae, K. pneumoniae ATCC10031
Summary of the method: as §1

P. mirabiris GN2425 = test: Sensitivity test (agar dilution); assay type: cell-based, Proteus mirabilis; details: Proteus mirabilis, P. mirabiris GN2425
Summary of the method: as §1

E. aerogenes ATCC13048 = test: Sensitivity test (agar dilution); assay type: cell-based, Enterobacter aerogenes; details: Klebsiella aerogenes, E. aerogenes ATCC13048
Summary of the method: as §1

C. freundii GN346 = test: Sensitivity test (agar dilution); assay type: cell-based, Citrobacter freundii; details: Citrobacter freundii, C. freundii GN346
Summary of the method: as §1

P. aeruginosa TL-2666 = test: Sensitivity test (agar dilution); assay type: cell-based, Pseudomonas aeruginosa; details: Pseudomonas aeruginosa, P. aeruginosa TL-2666
Summary of the method: as §1

P. aeruginosa TL-2667 = test: Sensitivity test (agar dilution); assay type: cell-based, Pseudomonas aeruginosa; details: Pseudomonas aeruginosa, P. aeruginosa TL-2667
Summary of the method: as §1

S. maltophilia IID1275 = test: Sensitivity test (agar dilution); assay type: cell-based, Stenotrophomonas maltophilia; details: Stenotrophomonas maltophilia, S. maltophilia IID1275
Summary of the method: as §1

M. catarrhalis ATCC25238 = test: Sensitivity test (agar dilution); assay type: cell-based, Moraxella catarrhalis; details: Moraxella catarrhalis, M. catarrhalis ATCC25238
Summary of the method: as §1

M. catarrhalis ATCC8176 = test: Sensitivity test (agar dilution); assay type: cell-based, Moraxella catarrhalis; details: Moraxella catarrhalis, M. catarrhalis ATCC8176
Summary of the method: as §1

## CCN1CCN(C(=O)N[C@@H](C(=O)N[C@@H]2C(=O)N3[C@@H]2SC(C)(C)[C@@H]3C(=O)O)c2ccccc2)C(=O)C1=O [PIPC, piperacillin]
M. luteus ATCC9341; ATCC9341, Concomitant (PIPC:SM = 1:1), read-out: MIC concomitant
  MIC: ≤ 0.002 µg/mL
M. luteus ATCC9341; ATCC9341, drug alone, read-out: MIC alone
  MIC: 0.031 µg/mL
E. faecalis ATCC19433; ATCC19433, Concomitant (PIPC:SM = 1:1), read-out: MIC concomitant
  MIC: 0.5 µg/mL
E. faecalis ATCC19433; ATCC19433, drug alone, read-out: MIC alone
  MIC: 2 µg/mL
B. subtilis ATCC6633; ATCC6633, Concomitant (PIPC:SM = 1:1), read-out: MIC concomitant
  MIC: ≤ 0.002 µg/mL
B. subtilis ATCC6633; ATCC6633, drug alone, read-out: MIC alone
  MIC: 0.125 µg/mL
E. coli ML1410 RP4; ML1410RP4, read-out: MIC alone, drug alone
  MIC: > 32 µg/mL
E. coli ML1410 RP4; ML1410RP4, read-out: MIC concomitant, Concomitant (PIPC:SM = 1:1)
  MIC: 0.5 µg/mL
K. pneumoniae ATCC10031; ATCC10031, Concomitant (PIPC:SM = 1:1), read-out: MIC concomitant
  MIC: 0.016 µg/mL
K. pneumoniae ATCC10031; ATCC10031, drug alone, read-out: MIC alone
  MIC: 0.25 µg/mL
P. mirabiris GN2425; GN2425, read-out: MIC alone, drug alone
  MIC: 0.25 µg/mL
P. mirabiris GN2425; GN2425, read-out: MIC concomitant, Concomitant (PIPC:SM = 1:1)
  MIC: 0.063 µg/mL
E. aerogenes ATCC13048; ATCC13048, Concomitant (PIPC:SM = 1:1), read-out: MIC concomitant
  MIC: 8 µg/mL
E. aerogenes ATCC13048; ATCC13048, drug alone, read-out: MIC alone
  MIC: 4 µg/mL
C. freundii GN346; GN346, Concomitant (PIPC:SM = 1:1), read-out: MIC concomitant
  MIC: 8 µg/mL
C. freundii GN346; GN346, drug alone, read-out: MIC alone
  MIC: 1 µg/mL
P. aeruginosa TL-2666; TL2666, Concomitant (PIPC:SM = 1:1), read-out: MIC concomitant
  MIC: 16 µg/mL
P. aeruginosa TL-2666; TL2666, drug alone, read-out: MIC alone
  MIC: 1 µg/mL
P. aeruginosa TL-2667; TL2667, Concomitant (PIPC:SM = 1:1), read-out: MIC concomitant
  MIC: 16 µg/mL
P. aeruginosa TL-2667; TL2667, drug alone, read-out: MIC alone
  MIC: 2 µg/mL
S. maltophilia IID1275; IID1275, Concomitant (PIPC:SM = 1:1), read-out: MIC concomitant
  MIC: > 32 µg/mL
S. maltophilia IID1275; IID1275, drug alone, read-out: MIC alone
  MIC: > 32 µg/mL
M. catarrhalis ATCC25238; ATCC25238, Concomitant (PIPC:SM = 1:1), read-out: MIC concomitant
  MIC: ≤ 0.002 µg/mL
M. catarrhalis ATCC25238; ATCC25238, drug alone, read-out: MIC alone
  MIC: 0.008 µg/mL
M. catarrhalis ATCC8176; ATCC8176, Concomitant (PIPC:SM = 1:1), read-out: MIC concomitant
  MIC: ≤ 0.002 µg/mL
M. catarrhalis ATCC8176; ATCC8176, drug alone, read-out: MIC alone
  MIC: 0.016 µg/mL
